Test system: RNA isoforms in PNN 1-46 SMA type I patient-derived fibroblasts
Assay: RNA Abundance Modulation (RNA isoform abundance, iFPM, HiSeq RNA sequencing)
Format: cell-based, human
Conditions: 3 μM
Procedure: Cells from a cell line of interest are cultured in conditions sufficient to yield the number of cells capable of generating enough RNA for subsequent sequencing steps. Cells from the tested cell line are contacted with a compound described herein.
To culture said cells, they are seeded, at appropriate concentrations in a volume of media in a cell culture container and incubated for 4, 5, 6, 7, 8, 9, 10, or more hours. A concentrated solution of compound in a vehicle (e.g., DMSO) is then added in sufficient volume to result in the intended final concentration of the compound, for example 100 nM, 500 nM, 1 μM, 5 μM, 10 μM, 15 μM, 20 μM, or more. The cells may also be treated with vehicle alone, as a control. A number of replicates of each concentration or control may be made (e.g., 2 replicates). The cells are then incubated at a constant temperature appropriate for cell culture of the particular cell line (e.g., 37° C.) for 6, 12, 18, 24, 48, or more hours. After incubation, the growth medium is removed and the cells are washed with the appropriate buffer (e.g., PBS). Cells are then removed from adherence to the cell culture container by treatment with a solution containing trypsin, and the trypsin subsequently quenched with the appropriate volume of buffer (e.g., DMEM-FBS). The cells are then pelleted with gentle centrifugation (e.g., ≤90×g centrifugal force) and resuspended in a buffer to lyse the cells for extraction of RNA. The cell lysates may then be frozen (e.g., at −80° C.) or, alternately, may immediately be used in a procedure to purify the RNA (e.g. by use of the RNEASY PLUS® minikit). The RNA from cell lysates is eluted in the appropriate volume of buffer (e.g., RNEASE-FREE H2O®). The resulting purified RNA may then be sequenced (e.g., using RNASeq) or analyzed using a human exon array (e.g., by GENECHIP® human exon array) to determine changes in the RNA levels in those cells treated with compound compared to those cells treated only with DMSO. The purified RNA may also be quantified by other methods known in the art.
Using the RNA data obtained from sequencing, exon array, or other methods, a statistical analysis can reveal changes in the RNA levels of compound-treated compared with control. For example, t-test p-values may be calculated for the data obtained through sequencing and exon array methods in order to compare compound-treated cells to those treated with the DMSO control. […] Analysis of the sequencing and exon array data may then also yield predictions about the cause of the aberrant amount of an RNA transcript in the cells (e.g., perturbation of RNA splicing, RNA transcription, or RNA stability). These predictions may be further confirmed by methods known in the art. For example, RT-PCR and RT-qPCR may be used to confirm the change in amount of RNA transcripts for one or more particular transcripts of interest.
Following the methods described above in Example 1, PNN 1-46 SMA type I patient-derived fibroblasts were treated with 300 nM or 3 μM Compounds 774 and 808 in 0.5% DMSO.
700,000 cells were seeded in 10 mL of medium (DMEM plus 10% FBS) in a T-75 flask. Cells were allowed to attach for at least 4 hrs, after which 50 μL of a 200× compound solution (100% DMSO) was added to each well, and the plate was incubated at 37° C. for 24 hrs.
At the end of the incubation period, the supernatant was removed and the cells where washed with PBS. TrypLE (Invitrogen) express solution was added (e.g. 1.5 mL per one T75 flask). The flasks were incubated for 3 to 5 min at 37° C. The trypsin was then quenched, e.g., by adding 10 mL DMEM-FBS.
Next, the cells were pelleted using gentle centrifugation without exceeding 90×g centrifugal force. The supernatant was removed and the cell pellet was re-suspended in 600 μL RLT buffer (the RLT buffer was supplemented with beta-mercaptoethanol according to the RNeasy protocol manual) by pipetting up and down until the pellet was completely dissolved […]

Structure (SMILES): CCc1nc(C)cn2nc(-c3cc(=O)n4cc(C5CCN(C)CC5)cc(C)c4n3)cc12 [Compound 774]
- L2FC (x + 1) (TRAPPC12 AK094181): 0.288
- L2abs (Cpd-DMSO) (TRAPPC12 AK094181): 2.20
- abs (Cpd-DMSO) (TRAPPC12 AK094181): 5 iFPM
- amp FC (x + 1) (TRAPPC12 AK094181): 1.22
- ave Cpd (TRAPPC12 AK094181): 24 iFPM
- FC (x + 1) (TRAPPC12 AK098327): 0.0066
- L2FC (x + 1) (TRAPPC12 AK098327): −7.244
- L2abs (Cpd-DMSO) (TRAPPC12 AK098327): 7.23
- abs (Cpd-DMSO) (TRAPPC12 AK098327): 151 iFPM
- amp FC (x + 1) (TRAPPC12 AK098327): 151.58
- ave Cpd (TRAPPC12 AK098327): 0 iFPM
- FC (x + 1) (TRAPPC12 NM_016030): 1.2575
- L2FC (x + 1) (TRAPPC12 NM_016030): 0.331
- L2abs (Cpd-DMSO) (TRAPPC12 NM_016030): 7.32
- abs (Cpd-DMSO) (TRAPPC12 NM_016030): 160 iFPM
- amp FC (x + 1) (TRAPPC12 NM_016030): 1.26
- ave Cpd (TRAPPC12 NM_016030): 781 iFPM
- FC (x + 1) (TRIM2 BC025417): 0.7534
- L2FC (x + 1) (TRIM2 BC025417): −0.408
- L2abs (Cpd-DMSO) (TRIM2 BC025417): 0.61
- abs (Cpd-DMSO) (TRIM2 BC025417): 2 iFPM
- amp FC (x + 1) (TRIM2 BC025417): 1.33
- ave Cpd (TRIM2 BC025417): 4 iFPM
- FC (x + 1) (TRIM2 NM_015271): 1.1211
- L2FC (x + 1) (TRIM2 NM_015271): 0.165
- L2abs (Cpd-DMSO) (TRIM2 NM_015271): 7.65
- abs (Cpd-DMSO) (TRIM2 NM_015271): 201 iFPM
- amp FC (x + 1) (TRIM2 NM_015271): 1.12
- ave Cpd (TRIM2 NM_015271): 1858 iFPM
- FC (x + 1) (TRIM2 NM_001130067): 0.0184
- L2FC (x + 1) (TRIM2 NM_001130067): −5.763
- L2abs (Cpd-DMSO) (TRIM2 NM_001130067): 5.74
- abs (Cpd-DMSO) (TRIM2 NM_001130067): 53 iFPM
- amp FC (x + 1) (TRIM2 NM_001130067): 54.29
- ave Cpd (TRIM2 NM_001130067): 0 iFPM
- FC (x + 1) (TRIM65 NM_173547): 1.6613
- L2FC (x + 1) (TRIM65 NM_173547): 0.732
- L2abs (Cpd-DMSO) (TRIM65 NM_173547): 7.49
- abs (Cpd-DMSO) (TRIM65 NM_173547): 179 iFPM
- amp FC (x + 1) (TRIM65 NM_173547): 1.66
- ave Cpd (TRIM65 NM_173547): 449 iFPM
- FC (x + 1) (TRIM65 NM_001256124): 0.0055
- L2FC (x + 1) (TRIM65 NM_001256124): −7.514
- L2abs (Cpd-DMSO) (TRIM65 NM_001256124): 7.51
- abs (Cpd-DMSO) (TRIM65 NM_001256124): 182 iFPM
- amp FC (x + 1) (TRIM65 NM_001256124): 182.75
- ave Cpd (TRIM65 NM_001256124): 0 iFPM
- FC (x + 1) (TSPAN2 GU971730): 0.3567
- L2FC (x + 1) (TSPAN2 GU971730): −1.487
- L2abs (Cpd-DMSO) (TSPAN2 GU971730): 4.19
- abs (Cpd-DMSO) (TSPAN2 GU971730): 18 iFPM
- amp FC (x + 1) (TSPAN2 GU971730): 2.80
- ave Cpd (TSPAN2 GU971730): 9 iFPM
- FC (x + 1) (TSPAN2 NM_005725): 0.3229
- L2FC (x + 1) (TSPAN2 NM_005725): −1.631
- L2abs (Cpd-DMSO) (TSPAN2 NM_005725): 8.17
- abs (Cpd-DMSO) (TSPAN2 NM_005725): 288 iFPM
- amp FC (x + 1) (TSPAN2 NM_005725): 3.10
- ave Cpd (TSPAN2 NM_005725): 136 iFPM
- FC (x + 1) (U2SURP AK057679): 1.1346
- L2FC (x + 1) (U2SURP AK057679): 0.182
- L2abs (Cpd-DMSO) (U2SURP AK057679): 4.73
- abs (Cpd-DMSO) (U2SURP AK057679): 27 iFPM
- amp FC (x + 1) (U2SURP AK057679): 1.13
- ave Cpd (U2SURP AK057679): 223 iFPM
- FC (x + 1) (U2SURP AK296440): 0.9747
- L2FC (x + 1) (U2SURP AK296440): −0.037
- L2abs (Cpd-DMSO) (U2SURP AK296440): 2.77
- abs (Cpd-DMSO) (U2SURP AK296440): 7 iFPM
- amp FC (x + 1) (U2SURP AK296440): 1.03
- ave Cpd (U2SURP AK296440): 261 iFPM
- FC (x + 1) (U2SURP BC006474): 0.9155
- L2FC (x + 1) (U2SURP BC006474): −0.127
- L2abs (Cpd-DMSO) (U2SURP BC006474): 6.85
- abs (Cpd-DMSO) (U2SURP BC006474): 115 iFPM
